Earlier results in paper PMC6376154 (International Journal for Parasitology: Drugs and Drug …, 2019).
Where two headings read alike, the source gives them in different places.

Test system: P. falciparum 3D7 asexual blood stage
Settings: cited from earlier work
[1] = MMV Malaria Box data sheet, ref MMV data sheets
[2] = MMV Malaria Box data sheet, ref MMV data sheets, read-out: EC50_nM
[3] = source GNF, ref ChEMBL_NTD, read-out: CHEMBL EC50
[4] = MMV Malaria Box data sheet (supplement mmc2.xls), ref MMV data sheet, read-out: EC50_nM
[5] = value(s) per source (GSK, GNF, StJude), separated by semicolon, ref ChEMBL-NTD, read-out: CHEMBL EC50
[6] = ChEMBL-NTD value per source (GNF, GSK, StJude), several values in a cell follow the order of the sources, read-out: CHEMBL EC50
[7] = MMV Malaria Box sheet, ref MMV data sheets
[8] = MMV Malaria Box sheet, ref MMV data sheets, read-out: EC50_nM
[9] = MMV Malaria Box data sheet (supplement mmc2.xls), ref MMV data sheet
[10] = source GSK, ref ChEMBL_NTD, read-out: CHEMBL EC50

Cc1cc(C)c2c(c1)OCN(Cc1ccccc1Cl)C2 [MMV006558]
percent_inh @ 5 uM [1]: 98% | EC50 [2]: 268 nM | EC50 [3]: 192 nM

Clc1ccc2[nH]c3c(NCCCN4CCOCC4)ncnc3c2c1 [MMV006587]
EC50 [4]: 700 nM | EC50 [5]: 109 nM

CCOC(=O)C1=CN(C)C=C(C(=O)OCC)C1c1cc(Br)c(OCC)c(OC)c1 [MMV006656]
EC50 [6]: 913 nM

CN(C)CCNc1cc(-c2ccccc2)nc2ccccc12 [MMV006704]
percent_inh @ 2 uM [7]: 92% | EC50 [8]: 4000 nM | EC50 [3]: 692 nM

Cc1cc(N2CCN(C3CCCC3)CC2)n2c(nc3ccccc32)c1C#N [MMV006706]
EC50 [4]: 683 nM | EC50 [5]: 743 nM

Cc1cc(=O)oc2c1ccc1oc(C(=O)c3ccccc3)c(C)c12 [MMV006753]
percent_inh @ 5 uM [7]: 94% | EC50 [3]: 441 nM

CCOc1c(Br)cc(C2C(C(=O)OC)=CN(C)C=C2C(=O)OC)cc1OC [MMV006764]
EC50 [6]: 292 nM

COc1cc2cc(C(=O)Nc3ccccc3)c(N)nc2cc1OC [MMV006767]
percent_inh @ 5 uM [9]: 99%

CC(C)CCNCC(O)Cn1c2ccccc2c2ccccc21 (stereo not shown) [MMV006787]
percent_inh @ 5 uM [7]: 97% | EC50 [8]: 473 nM | EC50 [3]: 201 nM

CCCCc1c(C)nc2c(OC)cccc2c1O [MMV006820]
percent_inh @ 2 uM [7]: 92% | EC50 [8]: 4000 nM | EC50 [3]: 1690 nM

COc1ccc(Nc2cc(C)nc(NCc3ccccc3)n2)cc1 [MMV006825]
EC50 [6]: 151 nM

c1ccc2cc3c(Nc4ccc(N5CCOCC5)cc4)ccnc3cc2c1 [MMV006861]
percent_inh @ 5 uM [1]: 97% | EC50 [2]: 251 nM | EC50 [3]: 672 nM

CCOC(=O)c1cnc2ccc(Cl)cc2c1NCCCN(C)C [MMV006882]
percent_inh @ 5 uM [7]: 98% | EC50 [8]: 1190 nM | EC50 [3]: 826 nM

C=CCc1c(C)nc2ccccc2c1O [MMV006913]
percent_inh @ 5 uM [9]: 85% | EC50 [4]: 1290 nM | EC50 [5]: 707 nM

Cc1ccc(-c2cc3nc4c(c(O)n3n2)CCCC4)cc1 [MMV006937]
percent_inh @ 5 uM [1]: 73% | EC50 [2]: 396 nM | EC50 [3]: 1600 nM

O=C(Nc1ccc(-c2nc3cc(NC(=O)c4ccc(Cl)cc4)ccc3[nH]2)cc1)c1ccc(Cl)cc1 [MMV006962]
% inh. At 1.25 uM (1.25 uM, solubility issue at 5 uM): Solubility issue at 5 uM. % inh. At 1.25 uM is 48 | EC50 [6]: 993 nM

CCOc1ccc2nc(C)cc(Nc3ccc(N(C)C)cc3)c2c1 [MMV007020]
EC50 [6]: 344 nM

Cc1ccc2c(C)nc(Nc3nc(C)cc(-c4ccccc4)n3)nc2c1 [MMV007041]
EC50 [6]: 975 nM

CCOc1ccc(CN2CCN(CC(O)COc3ccc(OCC(O)CN4CCN(Cc5ccc(OCC)cc5)CC4)cc3)CC2)cc1 (stereo not shown) [MMV007092]
EC50 [6]: 1370 nM

c1ccc(C2=Nc3ccccc3N=C(c3ccccc3)c3ccccc32)cc1 [MMV007113]
EC50 [6]: 678 nM

CCOC(=O)c1cnc2ccc(CC)cc2c1O [MMV007116]
EC50 [2]: 351 nM | EC50 [3]: 716 nM

OC1=C2C(=Nc3ccccc3SC2c2ccc(Br)cc2)c2ccccc21 (stereo not shown) [MMV007127]
percent_inh @ 5 uM [7]: 97% | EC50 [8]: 567 nM | EC50 [3]: 337 nM

Cc1ccc(N2C3c4ccccc4N(S(=O)(=O)c4ccc(C)cc4)C2c2ccccc2N3S(=O)(=O)c2ccc(C)cc2)cc1 [MMV007160]
percent_inh @ 5 uM [1]: 97% | EC50 [2]: 24.8 nM | EC50 [3]: 720 nM

Cc1cc(Nc2ccc(OCc3ccccc3)cc2)nc2cc(O)ccc12 [MMV007181]
EC50 [6]: 73.6 nM

COc1ccccc1N1C(=N)SC(=Cc2ccc(OCc3ccccc3F)cc2)C1=O [MMV007199]
percent_inh @ 5 uM [7]: 95% | EC50 [8]: 478 nM

COc1ccc(OC)c(C2C3=C(CC(C)(C)CC3=O)N(c3ccc(Cl)c(Cl)c3)C3=C2C(=O)CC(C)(C)C3)c1 [MMV007208]
percent_inh @ 5 uM [7]: 90% | EC50 [8]: 912 nM | EC50 [3]: 430 nM

Cc1cccc(N2C(=O)C3C(C2=O)C2(c4ccccc4)C(=O)C3(c3ccccc3)C(c3ccc4c(c3)OCO4)=C2c2ccc3c(c2)OCO3)c1 (stereo not shown) [MMV007228]
EC50 [6]: 1070 nM

Cc1ccc(F)cc1NC(=O)c1cc(Cl)ccc1Nc1ccccc1 [MMV007275]
EC50 [6]: 191 nM

CCOc1ccc(Nc2ccnc3cc(Cl)ccc23)cc1 [MMV007285]
EC50 [6]: 956 nM

CCc1ccc(Nc2cc(C)nc3nc(C)nn23)cc1 [MMV007374]
percent_inh @ 2 uM [9]: 81% | EC50 [4]: 4000 nM | EC50 [5]: 574 nM

COc1ccc(-c2nc3cc(Cc4ccc5[nH]c(-c6ccc(OC)cc6)nc5c4)ccc3[nH]2)cc1 [MMV007384]
percent_inh @ 5 uM [1]: 98% | EC50 [2]: 176 nM | EC50 [3]: 234 nM

Cc1ccccc1OCCSc1nc2ccc(NC(=O)c3cccs3)cc2s1 [MMV007396]
EC50 [6]: 497 nM

O=C(NCc1ccco1)C1CCN(S(=O)(=O)c2ccc(Br)cc2)CC1 [MMV007430]
percent_inh @ 5 uM [9]: 93% | EC50 [4]: 939 nM | EC50 [5]: 362 nM

COc1cc2c3cc1Oc1c(OC)c(OC)cc4c1C(Cc1ccc(O)c(c1)Oc1ccc(cc1)CC3N(C)CC2)N(C)CC4 (stereo not shown) [MMV007474]
EC50 [6]: 997 nM

COc1ccc(CCNC(=O)c2cc(S(=O)(=O)N3CC(C)CC(C)C3)ccc2Sc2ccc(F)cc2)cc1OC (stereo not shown) [MMV007557]
percent_inh @ 5 uM [7]: 97% | EC50 [8]: 632 nM | EC50 [3]: 1050 nM

Cc1ccc(Cn2c(N3CCC(C(=O)NCc4cccs4)CC3)nc3ccccc32)cc1 [MMV007564]
percent_inh @ 5 uM [1]: 73% | EC50 [2]: 947 nM | EC50 [3]: 529 nM | EC50 [10]: 748 nM

Cc1ccc(CSCc2ccc(C(=O)NC3CC3)o2)cc1 [MMV007571]
percent_inh @ 5 uM [9]: 97% | EC50 [4]: 635 nM | EC50 [5]: 418 nM

O=C(Nc1ccc(C23CC4CC(CC(c5ccccc5)(C4)C2)C3)cc1)c1cccs1 [MMV007574]
percent_inh @ 5 uM [7]: 96% | EC50 [8]: 826 nM | EC50 [3]: 645 nM

Cc1ccccc1OCCSc1nc2ccc(NC(=O)c3ccccc3)cc2s1 [MMV007577]
percent_inh @ 5 uM [7]: 93% | EC50 [8]: 1120 nM | EC50 [3]: 9760 nM

COc1ccc(C(=O)C(CCC(CNC(C)(C)C)C(=O)c2ccc(OC)cc2)CNC(C)(C)C)cc1 (stereo not shown) [MMV007591]
EC50 [6]: 1120 nM

CC(=O)NCCc1nc2ccccc2n1Cc1ccc(C(C)C)cc1 [MMV007617]
percent_inh @ 5 uM [9]: 97% | EC50 [4]: 1790 nM | EC50 [5]: 764 nM

Cc1ccc(C)c(-c2csc(Nc3ccc(C)c(C)c3)n2)c1 [MMV007654]
EC50 [6]: 493 nM

CCCCCCOC(=O)C1=C(C)NC(=O)NC1c1ccccc1F (stereo not shown) [MMV007686]
percent_inh @ 5 uM [1]: 95% | EC50 [2]: 106 nM | EC50 [3]: 6760 nM

COc1ccc(C(C)=O)cc1N1C(=O)C2C(C1=O)C1(c3ccccc3)C(=O)C2(c2ccccc2)C(c2ccc(C)cc2)=C1c1ccc(C)cc1 (stereo not shown) [MMV007695]
percent_inh @ 5 uM [1]: 96% | EC50 [2]: 179 nM | EC50 [3]: 2460 nM

CCCCc1c(CCC)c(=N)c2ccccc2n1C [MMV007764]
EC50 [6]: 311 nM

CCOc1ccccc1NC(=O)CN1CCN(C(=O)c2ccco2)CC1 [MMV007791]
percent_inh @ 5 uM [7]: 83% | EC50 [3]: 5460 nM

COc1nc(Nc2ccc(C(C)C)cc2)nc(OC)n1 [MMV007808]
percent_inh @ 5 uM [9]: 88% | EC50 [4]: 1140 nM | EC50 [5]: 677 nM

COc1ccc2c(c1)OC(O)(C(F)(F)C(F)(F)F)CC2=O (stereo not shown) [MMV007839]
EC50 [2]: 283 nM | EC50 [3]: 442 nM

COc1ccc2nc(C)cc(Nc3ccc(Cl)cc3)c2c1 [MMV007875]
percent_inh @ 2 uM [7]: 95% | EC50 [8]: 2000 nM | EC50 [3]: 1230 nM | EC50 [10]: 946 nM

CCCCN(CCCC)S(=O)(=O)c1ccc(NC(=O)c2ccco2)cc1 [MMV007881]
percent_inh @ 5 uM [7]: 78% | EC50 [3]: 1420 nM
